Earlier results as cited in US20190289805A1, “CULTURING METHOD FOR CULTURED LEGUMINOUS ROOTS HAVING INCREASED COUMESTROL CONTENT” (Amorepacific Corporation, priority 2016, published 2019).

Tested on: mouse uterus
Conditions: oral administration

For `O=c1oc2cc(O)ccc2c2oc3cc(O)ccc3c12` [coumestrol], which estrogen effect (mature mice) is on record?
The estrogen effect was “has no estrogen effect”.

And the “estrogen effect (change in weight of uterus)” value (young female mice)?
Its value is “exhibits an effective estrogen effect”.
